US6737383B1, “Herbicidal oxadiazolidines” (priority 1999, dated 2004)

What was measured:
[1] = system: duck salad; assay: Test B flood test duck salad; format: in vivo, Heteranthera limosa
Summary of the method: (§1)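 Flood test on plants grown to the 2-leaf stage; treated plants kept in greenhouse twelve to sixteen days, then visually rated against controls on a 0 (no effect) to 10 (complete control) scale.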

[2] = system: corn; assay: Test B pre/postemergence corn; format: in vivo, Zea mays
Summary of the method: (§2)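 Response is a visual 0-to-10 score relative to untreated plants, where 0 means no effect and 10 means complete control, taken twelve to sixteen days after application. Treatments went onto soil at planting and onto foliage of 1- to 4-leaf plants, using a surfactant-containing non-phytotoxic solvent.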

[3] = system: sugar beet; assay: Test B pre/postemergence sugar beet; format: in vivo, Beta vulgaris; settings: for Plant response rating, Sugarbeets: scale of 0 to 10 where 0 is no effect and 10 is complete control
Summary of the method: as §2

[4] = system: purple nutsedge; assay: Test B pre/postemergence purple nutsedge; format: in vivo, Cyperus rotundus; settings: for Plant response rating, Nutsedge: scale of 0 to 10 where 0 is no effect and 10 is complete control
Summary of the method: as §2

[5] = system: cocklebur; assay: Test B pre/postemergence cocklebur; format: in vivo, Xanthium strumarium
Summary of the method: as §2

[6] = system: giant foxtail; assay: Test B pre/postemergence giant foxtail; format: in vivo, Setaria faberii
Summary of the method: as §2

[7] = system: velvetleaf; assay: Test B pre/postemergence velvetleaf; format: in vivo, Abutilon theophrasti; settings: for Plant response rating, Velvetleaf: scale of 0 to 10 where 0 is no effect and 10 is complete control
Summary of the method: as §2

[8] = system: bamyardgrass; assay: Test B flood test barnyardgrass; format: in vivo, Echinochloa crus-galli
Summary of the method: as §1

[9] = system: rape; assay: Test B pre/postemergence rape; format: in vivo, Brassica napus; settings: for Plant response rating, Rape: scale of 0 to 10 where 0 is no effect and 10 is complete control
Summary of the method: as §2

[10] = system: bedstraw; assay: Test B pre/postemergence bedstraw; format: in vivo, Galium aparine
Summary of the method: as §2

[11] = system: blackgrass; assay: Test B pre/postemergence blackgrass; format: in vivo, Alopecurus myosuroides
Summary of the method: as §2

[12] = system: pigweed; assay: Test B pre/postemergence pigweed; format: in vivo, Amaranthus retroflexus; settings: for Plant response rating, Redroot pigweed: scale of 0 to 10 where 0 is no effect and 10 is complete control
Summary of the method: as §2

[13] = system: morningglory; assay: Test B pre/postemergence morningglory; format: in vivo, Ipomoea hederacea; settings: for Plant response rating, Morningglory: scale of 0 to 10 where 0 is no effect and 10 is complete control
Summary of the method: as §2

[14] = system: rice; assay: Test B flood test rice; format: in vivo, Oryza sativa
Summary of the method: as §1

[15] = system: surinam grass; assay: Test B pre/postemergence surinam grass; format: in vivo, Brachiaria decumbens
Summary of the method: as §2

[16] = Rate 62 g/ha, flood test species, Pre-emergence, visual evaluation after twelve to sixteen days
[17] = Rate 125 g/ha, under heading Pre-emergence, flood test species, visual evaluation after twelve to sixteen days
[18] = Rate 250 g/ha, Pre-emergence (flood test species), scale 0 to 10, 0 is no effect, 10 is complete control
[19] = Rate 500 g/ha, Pre-emergence, flood test species, scale 0 to 10 (0 no effect, 10 complete control)
[20] = Postemergence, Rate 250 g/ha, scale 0 to 10
[21] = Postemergence, Rate 500 g/ha, scale of 0 to 10 where 0 is no effect and 10 is complete control
[22] = Preemergence, Rate 62 g/ha, scale of 0 to 10 where 0 is no effect and 10 is complete control
[23] = Preemergence, Rate 125 g/ha, scale of 0 to 10 where 0 is no effect and 10 is complete control
[24] = Preemergence, Rate 250 g/ha, scale 0 to 10, 0 is no effect, 10 is complete control
[25] = Preemergence, Rate 500 g/ha, scale 0 to 10, 0 is no effect, 10 is complete control
[26] = Rate 62 g/ha, Postemergence, scale 0 to 10 (0 no effect, 10 complete control)
[27] = Rate 125 g/ha, Postemergence, scale 0 to 10, 0 is no effect, 10 is complete control

## CC(C)N(C(=O)n1oc(=O)n(CC2=NOCC2)c1=O)c1ccc(F)cc1 [Compound 466]
[1]; [16]
  Plant response rating, Ducksalad (0 to 10 scale, 0 is no effect, 10 is complete control): 0
[1]; [17]
  Ducksalad plant response rating (0 to 10 scale, 0 is no effect, 10 is complete control): 0
[1]; [18]
  Ducksalad plant response rating: 0
[1]; [19]
  Ducksalad plant response rating: 0
[2]; [20]
  Corn plant response rating: 0
[2]; [21]
  Corn plant response rating: 2
[2]; [22]
  Plant response rating, Corn: 0
[2]; [23]
  Plant response rating, Corn: 0
[2]; [24]
  Corn plant response rating: 0
[2]; [25]
  Corn plant response rating: 4
[2]; [26]
  Corn plant response rating: 0
[2]; [27]
  Corn plant response rating: 0
[3]; [20]
  Sugarbeets plant response rating: 0
[3]; Preemergence, Rate 62 g/ha
  Plant response rating, Sugarbeets: 0
[3]; Preemergence, Rate 125 g/ha
  Plant response rating, Sugarbeets: 0
[3]; [24]
  Sugarbeets plant response rating: 2
[3]; [25]
  Sugarbeets plant response rating: 4
[3]; [26]
  Sugarbeets plant response rating: 0
[3]; [27]
  Sugarbeets plant response rating: 0
[4]; [20]
  Nutsedge plant response rating: 0
[4]; Preemergence, Rate 62 g/ha
  Plant response rating, Nutsedge: 0
[4]; Preemergence, Rate 125 g/ha
  Plant response rating, Nutsedge: 0
[4]; [24]
  Nutsedge plant response rating: 0
[4]; [26]
  Nutsedge plant response rating: 0
[4]; [27]
  Nutsedge plant response rating: 0
[5]; [20]
  Cocklebur plant response rating: 0
[5]; [21]
  Cocklebur plant response rating: 1
[5]; [22]
  Plant response rating, Cocklebur: 0
[5]; [23]
  Plant response rating, Cocklebur: 0
[5]; [24]
  Cocklebur plant response rating: 0
[5]; [25]
  Cocklebur plant response rating: 0
[5]; [26]
  Cocklebur plant response rating: 0
[5]; [27]
  Cocklebur plant response rating: 0
[6]; [20]
  Giant foxtail plant response rating: 9
[6]; [21]
  Giant foxtail plant response rating: 9
[6]; [22]
  Plant response rating, Giant foxtail: 9
[6]; [23]
  Plant response rating, Giant foxtail: 10
[6]; [24]
  Giant foxtail plant response rating: 10
[6]; [25]
  Giant foxtail plant response rating: 10
[6]; [26]
  Giant foxtail plant response rating: 9
[7]; [20]
  Velvetleaf plant response rating: 0
[7]; Preemergence, Rate 62 g/ha
  Plant response rating, Velvetleaf: 0
[7]; Preemergence, Rate 125 g/ha
  Plant response rating, Velvetleaf: 0
[7]; [24]
  Velvetleaf plant response rating: 4
[7]; [25]
  Velvetleaf plant response rating: 4
[7]; [26]
  Velvetleaf plant response rating: 0
[7]; [27]
  Velvetleaf plant response rating: 0
[8]; [16]
  Plant response rating, Barnyardgrass (0 to 10 scale, 0 is no effect, 10 is complete control): 0
[8]; [17]
  Barnyardgrass plant response rating (0 to 10 scale, 0 is no effect, 10 is complete control): 0
[8]; [18]
  Barnyardgrass plant response rating: 0
[8]; [19]
  Barnyardgrass plant response rating: 0
[9]; [20]
  Rape plant response rating: 0
[9]; Preemergence, Rate 62 g/ha
  Plant response rating, Rape: 0
[9]; Preemergence, Rate 125 g/ha
  Plant response rating, Rape: 0
[9]; [24]
  Rape plant response rating: 0
[9]; [25]
  Rape plant response rating: 3
[9]; [26]
  Rape plant response rating: 0
[9]; [27]
  Rape plant response rating: 0
[10]; [20]
  Bedstraw plant response rating: 4
[10]; [23]
  Plant response rating, Bedstraw: 2
[10]; [25]
  Bedstraw plant response rating: 2
[10]; [26]
  Bedstraw plant response rating: 4
[11]; [20]
  Blackgrass plant response rating: 8
[11]; [21]
  Blackgrass plant response rating: 9
[11]; [22]
  Plant response rating, Blackgrass: 2
[11]; [23]
  Plant response rating, Blackgrass: 5
[11]; [24]
  Blackgrass plant response rating: 7
[11]; [25]
  Blackgrass plant response rating: 8
[11]; [26]
  Blackgrass plant response rating: 8
[12]; [20]
  Redroot pigweed plant response rating: 3
[12]; Preemergence, Rate 62 g/ha
  Plant response rating, Redroot pigweed: 1
[12]; Preemergence, Rate 125 g/ha
  Plant response rating, Redroot pigweed: 7
[12]; [24]
  Redroot pigweed plant response rating: 9
[12]; [25]
  Redroot pigweed plant response rating: 10
[12]; [26]
  Redroot pigweed plant response rating: 2
[12]; [27]
  Redroot pigweed plant response rating: 2
[13]; [20]
  Morningglory plant response rating: 2
[13]; Preemergence, Rate 62 g/ha
  Plant response rating, Morningglory: 0
[13]; Preemergence, Rate 125 g/ha
  Plant response rating, Morningglory: 0
[13]; [24]
  Morningglory plant response rating: 0
[13]; [25]
  Morningglory plant response rating: 0
[13]; [26]
  Morningglory plant response rating: 0
[13]; [27]
  Morningglory plant response rating: 2
[14]; [16]
  Plant response rating, Rice (0 to 10 scale, 0 is no effect, 10 is complete control): 0
[14]; [17]
  Rice plant response rating (0 to 10 scale, 0 is no effect, 10 is complete control): 0
[14]; [18]
  Rice plant response rating: 0
[14]; [19]
  Rice plant response rating: 0
[15]; Postemergence, Rate 250 g/ha, scale 0 to 10, 0 no effect, 10 complete control
  B. signalgrass plant response rating: 3
[15]; [21]
  B. signalgrass plant response rating: 7
[15]; [22]
  Plant response rating, B. signalgrass: 0
[15]; [23]
  Plant response rating, B. signalgrass: 3
[15]; [24]
  B. signalgrass plant response rating: 6
[15]; [25]
  B. signalgrass plant response rating: 9
[15]; [26]
  B. signalgrass plant response rating: 2
[15]; [27]
  B. signalgrass plant response rating: 2
